In ChEMBL document CHEMBL5360530, “Structure activity relationship (SAR) and anticancer activity of pyrrolidine derivatives: Recent developments and future prospects (A review)” (Eur J Med Chem, 2023):
≈ marks a conversion by molar mass, not a printed value. Each block holds one compound with its values, some of them ahead of it. Peptide text beside a SMILES is read from it. * marks the point of attachment. X2 = CC[C@H](C)[C@@H](CN[C@@H](Cc1ccccc1)C(=O)OC)N*; X1 = O=C(OC(C(F)(F)F)C(F)(F)F)*

Experiments:
[1] = tested on: PC-3; test: Anticancer activity against human PC-3 cells assessed as cell growth inhibition measured after 48 hrs by MTT assay; format: functional, cell-based; conditions: PC-3, 48 h
[2] = tested on: PC-3; test: Potency index, ratio of cisplatin IC50 to test compound IC50 for anticancer activity against human PC-3 cells; format: functional
[3] = tested on: HCT-116; test: Potency index, ratio of cisplatin IC50 to test compound IC50 for anticancer activity against human HCT-116 cells; format: functional
[4] = tested on: HepG2; test: Anticancer activity against human HepG2 cells assessed as cell growth inhibition measured after 48 hrs by MTT assay; format: functional, cell-based; conditions: HepG2, 48 h
[5] = tested on: HCT-116; test: Anticancer activity against human HCT-116 cells assessed as cell growth inhibition measured after 48 hrs by MTT assay; format: functional, cell-based; conditions: HCT-116, 48 h
[6] = tested on: HepG2; test: Potency index, ratio of cisplatin IC50 to test compound IC50 for anticancer activity against human HepG2 cells; format: functional
[7] = tested on: A549; test: Anticancer activity against human A549 cells assessed as cell growth inhibition measured after 24 hrs by MTT assay; format: functional, cell-based; conditions: A549, 24 h
[8] = tested on: Jurkat; test: Anticancer activity against human Jurkat cells assessed as cell growth inhibition measured after 48 hrs by MTT assay; format: functional, cell-based
[9] = tested on: P388; test: Anticancer activity against P388 cells assessed as cell growth inhibition; format: functional, cell-based; conditions: Mus musculus
[10] = tested on: HepG2; test: Anticancer activity against human HepG2 cell assessed as cell growth inhibition; format: functional, cell-based
[11] = tested on: HCT-116; test: Anticancer activity against human HCT-116 cell assessed as cell growth inhibition; format: functional, cell-based
[12] = tested on: PC-3; test: Anticancer activity against human PC-3 cell assessed as cell growth inhibition; format: functional, cell-based
[13] = tested on: MCF7; test: Anticancer activity against human MCF7 cells assessed as cell growth inhibition at 50 uM measured after 48 hrs by MTT assay relative to control; format: functional
[14] = tested on: COS-7; test: Anticancer activity against COS-7 cells assessed as cell growth inhibition at 50 uM measured after 48 hrs by MTT assay relative to control; format: functional; conditions: Chlorocebus aethiops
[15] = Cytotoxicity against human Adipose tissue derived mesenchymal stem cell assessed as cell growth inhibition measured after 48 hrs by MTT assay; format: toxicity, cell-based; conditions: adipose tissue derived mesenchymal stem cells
[16] = tested on: HT-29; test: Anticancer activity against human HT-29 cells assessed as cell growth inhibition measured after 48 hrs by MTT assay; format: functional, cell-based; conditions: HT-29, 48 h
[17] = tested on: MDA-MB-435; test: Anticancer activity against human MDA-MB-435 cells assessed as cell growth inhibition by SRB assay; format: functional, cell-based
[18] = tested on: MDA-MB-435; test: Growth inhibition of human MDA-MB-435 cells assessed as cell growth inhibition by SRB assay; format: functional
[19] = tested on: MCF7; test: Anticancer activity against human MCF7 cells assessed as cell growth inhibition by SRB assay; format: functional, cell-based
[20] = tested on: K562; test: Anticancer activity against human K562 cells assessed as cell growth inhibition measured after 48 hrs by WST-1 assay; format: functional, cell-based; conditions: K562, 48 h
[21] = tested on: MCF7; test: Anticancer activity against human MCF7 cells assessed as cell growth inhibition measured after 48 hrs by WST-1 assay; format: functional, cell-based; conditions: MCF7, 48 h
[22] = tested on: HeLa; test: Anticancer activity against human HeLa cells assessed as cell growth inhibition measured after 48 hrs by MTT assay; format: functional, cell-based
[23] = tested on: MCF7; test: Anticancer activity against human MCF7 cells assessed as cell growth inhibition measured after 24 hrs by SRB assay; format: functional, cell-based; conditions: MCF7, 24 h
[24] = tested on: HCT-116; test: Anticancer activity against human HCT-116 cells assessed as cell growth inhibition measured after 24 hrs by SRB assay; format: functional, cell-based; conditions: HCT-116, 24 h
[25] = tested on: Huh-7; test: Anticancer activity against human Huh-7 cells assessed as cell growth inhibition measured after 24 hrs by SRB assay; format: functional, cell-based; conditions: Huh-7, 24 h
[26] = tested on: Mahlavu; test: Anticancer activity against human Mahlavu cells assessed as cell growth inhibition measured after 24 hrs by SRB assay; format: functional, cell-based
[27] = tested on: HepG2; test: Anticancer activity against human HepG2 cells assessed as cell growth inhibition measured after 24 hrs by SRB assay; format: functional, cell-based; conditions: HepG2, 24 h
[28] = tested on: MDA-MB-231; test: Anticancer activity against human MDA-MB-231 cells assessed as cell growth inhibition measured after 72 hrs by CCK-8 assay; format: functional, cell-based; conditions: MDA-MB-231, 72 h
[29] = tested on: HCT-116; test: Anticancer activity against human HCT-116 cells assessed as cell growth inhibition measured after 72 hrs by CCK-8 assay; format: functional, cell-based; conditions: HCT-116, 72 h
[30] = tested on: A549; test: Anticancer activity against human A549 cells assessed as cell growth inhibition measured after 72 hrs by CCK-8 assay; format: functional, cell-based; conditions: A549, 72 h

IC50 [7]: 40.2 µM
IC50 [8]: 33.6 µM
Structure (SMILES): O=C1C2=CC=CC3C=CC=C(C23)C12N[C@@H](Cc1ccc(O)cc1)[C@@H]([N+](=O)[O-])[C@H]2c1ccc(Cl)cc1 (stereo not given in full)

IC50 [9]: 11.3 µg/mL (≈ 52.2 µM)
Structure (SMILES): O=C(/C=C/c1ccc(O)cc1)N1CCCC1

IC50 [9]: 53.5 µg/mL (≈ 229 µM)
Structure (SMILES): O=C(/C=C/c1ccc(O)c(O)c1)N1CCCC1

IC50 [7]: 65.7 µM
IC50 [8]: 33.1 µM
Structure (SMILES): O=C1C2=CC=CC3C=CC=C(C23)C12N[C@@H](Cc1ccc(O)cc1)[C@@H]([N+](=O)[O-])[C@H]2c1ccc(Br)cc1 (stereo not given in full)

IC50 [5]: 1.74 µM
IC50 [16]: 1.03 µM
Structure (SMILES): O=C1CCC(=O)N1c1ccc(O)cc1
IC50 at 48 h [15]: 1.32 µM

IC50 [17]: ≥ 3.6 µM
GI50 [18]: 27.3 µM
IC50 [19]: ≥ 53 µM
Structure (SMILES): N#CC1=C(N)OC2=C(C(=O)CO2)C12C(=O)Nc1ccc(I)cc12 (stereo not given)

IC50 [28]: 6 µM
IC50 [29]: 6 µM
IC50 [30]: 6 µM
Structure (SMILES): OC(CN1CCCCC1)Cn1c2ccc(Cl)cc2c2cc(Cl)ccc21 (stereo not given)

Second part, the compound before the results:

Structure (SMILES): O=C(/C=C/c1ccc(Cl)cc1Cl)[C@H]1[C@H](c2ccc(Cl)cc2Cl)[C@H]2CSCN2[C@]12C(=O)Nc1ccccc12
IC50 [1]: ≥ 2.7 µM
Ratio IC50 [2]: 1.8
Ratio IC50 [3]: 4
IC50 [4]: 1 µM
IC50 [5]: 2 µM
Ratio IC50 [6]: 2

Structure (SMILES): O=C(c1c[nH]c2ccccc12)[C@@H]1[C@@H](c2cccc(F)c2)[C@@H]2CSCN2[C@@]12C(=O)Nc1ccccc12
IC50 [10]: 5.5 µM
Ratio IC50 [2]: >2.9
IC50 [11]: 9 µM
IC50 [12]: 8 µM

Structure (SMILES): O=C(/C=C/c1cccc([N+](=O)[O-])c1)[C@H]1[C@H](c2cccc([N+](=O)[O-])c2)[C@H]2CSCN2C12C(=O)Nc1ccccc12 (stereo not given in full)
IC50 [1]: ≥ 2.7 µM
Ratio IC50 [2]: 1.8
Ratio IC50 [3]: 4
IC50 [4]: 1 µM
IC50 [5]: 2.5 µM
Ratio IC50 [6]: 2

Structure (SMILES): O=C1Nc2ccccc2C12CCNC2c1ccccc1 (stereo not given)
inhibition at 50 µM [13]: 25.2%
inhibition at 50 µM [14]: 0.51%

Structure (SMILES): O=C1/C(=C/c2cccc(F)c2)CCC[C@]12[C@@H](c1cccc(F)c1)[C@@H]1CSCN1[C@]21C(=O)Nc2ccccc21
IC50 [20]: 15.7 µM
IC50 [21]: 15.3 µM

Structure (SMILES): CC[C@H](C)[C@@H](CN[C@@H](Cc1ccccc1)C(=O)OC)NC(=O)[C@@H]1CCCN1C(=O)[C@H](CC(C)C)NC(=O)[C@@H]1CCCN1C(=O)[C@H](CC(C)C)NC(=O)OC(C(F)(F)F)C(F)(F)F (X1-LPLP-X2)
IC50 [22]: 4.3 µM

Structure (SMILES): O=C1/C(=C/c2ccc(Br)cc2)CCC[C@]12[C@@H](c1ccc(Br)cc1)[C@@H]1CSCN1[C@]21C(=O)Nc2ccccc21
IC50 [20]: 14.7 µM
IC50 [21]: 15.3 µM

Structure (SMILES): COc1ccc(/C=C2\CCC[C@@]3(C2=O)[C@@H](c2ccc(OC)cc2)[C@@H]2CSCN2[C@]32C(=O)Nc3ccccc32)cc1
IC50 [20]: 14.7 µM
IC50 [21]: 24.4 µM

Structure (SMILES): CCNC(=O)[C@H]1[C@H](c2ccc([N+](=O)[O-])cc2)[C@@]2(C(=O)Nc3ccccc32)[C@H](CC(C)C)N1[C@H](c1ccccc1)[C@@H](O)c1ccccc1
IC50 [23]: 4.8 µM
IC50 [24]: 3.9 µM
IC50 [25]: 8.2 µM
IC50 [26]: 14.9 µM

Structure (SMILES): Cc1ccc([C@@H]2[C@@H](C(=O)c3c[nH]c4ccccc34)[C@]3(C(=O)Nc4ccccc43)N3CSC[C@@H]23)cc1
IC50 [10]: 5.5 µM
IC50 [11]: 9 µM
IC50 [12]: 6 µM

Structure (SMILES): COc1cccc2c1C(=O)c1c(O)c3c(c(O)c1C2=O)C[C@@](O)(C(=O)CO)C[C@@H]3O[C@H]1C[C@H](N)[C@H](O)[C@H](C)O1 [DOXORUBICIN]
IC50 [23]: 4.89 µM
IC50 [24]: 7.03 µM
IC50 [27]: 5.59 µM
